The results in this text go back to patent US20250188085A1, “COMPOSITIONS AND METHODS FOR INHIBITION OF RAS” (THERAS, INC., priority 2022, published 2025).

The target of test [1] is T1, GDP-loaded KRAS4b (amino acids 1-169) G12C/C118S protein (Homo sapiens, UniProt P01116, C118S/G12C).
T1 construct: KRAS4b (amino acids 1-169) G12C/C118S protein; made in house
Description: Covalent cysteine 12 modification by MALDI-TOF MS, GDP-loaded KRAS G12C. It is filed as binding. The conditions noted are these: 15 minutes reaction time point. The method in brief:
(§1)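 KRAS4b 1-169 G12C/C118S loaded with GDP, GppNHp or GTP was used at 1 μM in 20 mM HEPES, 150 mM NaCl, 1 mM MgCl2, pH 7.3, and incubated with compound (5 mM DMSO stock) at room temperature in the dark. % modification at 15 min is adduct peak height over total protein peak heights by linear-mode MALDI-TOF.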

The target of test [2] is T2, Avi-KRAS G12C (1-169) GppNHp/RAF1 RBD-3×FLAG (52-151) (Homo sapiens, UniProt P01116, G12C).
T2 construct: Avi-KRAS G12C (1-169) GppNHp/RAF1 RBD-3×FLAG (52-151)
Description: Raf1 RBD-KRAS G12C-GppNHp disruption (protein:protein interaction HTRF assay). It is filed as biochemical. In a few lines:
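HTRF measuring disruption of 50 nM Avi-KRAS G12C (1-169) loaded with GppNHp binding RAF1 RBD-3×FLAG (52-151), in pH 7.5 Tris buffer with 5 mM MgCl2, 0.1% BSA, 10% DMSO. KRAS preincubated with compound 1 h, then RBD 1 h, then detection reagents 1 h, all at room temperature. Compound titration 30-0.02 μM; activity expressed as percent of DMSO control.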
For orientation: TR-FRET usually uses a lanthanide donor and a delayed reading to cut background.

The target of test [3] is T3, GppNHp-loaded KRAS4b (amino acids 1-169) G12C/C118S protein (Homo sapiens, UniProt P01116, C118S/G12C).
T3 construct: KRAS4b (amino acids 1-169) G12C/C118S protein; made in house
The experiment in a line: Covalent cysteine 12 modification by MALDI-TOF MS, GppNHp-loaded KRAS G12C. The test is classed as binding. The conditions noted are these: 15 minutes reaction time point. The method in brief: as §1

The next test has as its system pERK in NCI-H358 cells. The experiment in a line: Cell-based pERK HTRF assay. The conditions noted are these: 30 min incubation, read-out: pERK in NCI-H358 cell inhibition IC50. The method in brief: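 Cells seeded at 4×10^4/well in RPMI with 10% FBS, then next day treated for 30 min with a 9-point, 3-fold series from 75 μM top concentration at 0.25% DMSO. Lysates were read for pERK by HTRF (d2/Eu cryptate antibodies) after 4–24 h at room temperature, emission at 615 nm.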

Where two headings read alike, the source gives them in different places. Where only a bound is given, the exact number is not on record here.

Usually IC50 stands for the concentration that inhibits the measured activity by half. Regarding `C=CC(=O)N1CC(Oc2nc(OC[C@@]34CCCN3C[C@H](F)C4)nc3c(F)c(-c4ccc(F)c5sc(N)nc45)c(C(F)(F)F)cc23)[C@@H](C)C1` (stereo partly shown) [Compound 35], the “GDP-KRAS G12C percent of modification” value in test [1] was “C (10%≤modification <50%)”. Besides, the IC50 in test [2] was in the range of 500 to 5000 nM; with pERK in NCI-H358 cells, 100 to 1000 nM. In test [3], the “GppNHp-KRAS G12C percent of modification” value is “D (percent of modification <10%)”.
For `C=CC(=O)N1CC(Oc2nc(OC[C@@H]3CCCN3C)nc3c(F)c(-c4ccc(F)c5sc(N)nc45)c(Cl)cc23)C1` [Compound 1], in test [1], the “GDP-KRAS G12C percent of modification” value is “A (percent of modification ≥70%)”. Also, the concentration for half-maximal inhibition (IC50) in test [2] was 500 to 5000 nM; in the test on pERK in NCI-H358 cells (Homo sapiens, NCI-H358, 0.5 h), 100 to 1000 nM. In addition, in test [3], the “GppNHp-KRAS G12C percent of modification” value is recorded as “C (10%≤modification <50%)”.
With `C=CC(=O)N1CC[C@@H](Oc2nc(OC[C@@H]3CC(C)(C)CN3C)nc3c(F)c(-c4ccc(F)c5sc(N)nc45)c(C(F)(F)F)cc23)C1` (atropisomer, axis not shown) [Compound 16], the “GDP-KRAS G12C percent of modification” value in test [1] was “A (percent of modification ≥70%)”. The IC50 fell in the range of 500 to 5000 nM in test [2] and 100 to 1000 nM in the test with pERK in NCI-H358 cells. The “GppNHp-KRAS G12C percent of modification” value in test [3] is on record as “C (10%≤modification <50%)”.
`C=CC(=O)N1CC[C@@H](Oc2nc(OC[C@@]34CCCN3C[C@H](F)C4)nc3c(F)c(-c4ccc(F)c5oc(N)nc45)c(C(F)(F)F)cc23)C1` [Compound 36, 1-((3R)-3-((7-(2-amino-7-fluorobenzo[d]oxazol-4-yl)-8-fluoro-2-(((2R,7aS)-2-fluorotetrahydro-1H-pyrrolizin-7a (5H)-yl)methoxy)-6-(trifluoromethyl)quinazolin-4-yl)oxy)pyrrolidin-1-yl) prop-2-en-1-one]: in test [1], the “GDP-KRAS G12C percent of modification” value is reported as “C (10%≤modification <50%)”. Further, the IC50 in test [2] is no more than 500 nM; with pERK in NCI-H358 cells (Homo sapiens, NCI-H358, 0.5 h), no more than 100 nM. The “GppNHp-KRAS G12C percent of modification” value in test [3] is listed as “C (10%≤modification <50%)”.
`C=CC(=O)N1CC[C@@H](Oc2nc(OC[C@@]34CCCN3C[C@H](F)C4)nc3c(F)c(-c4ccc(F)c5sc(N)nc45)c(C(F)(F)F)cc23)C1` (single isomer, unassigned) [Compound 11]: the “GDP-KRAS G12C percent of modification” value in test [1] was “A (percent of modification ≥70%)”. For the same molecule, the IC50 in test [2] is no more than 500 nM; in the test with pERK in NCI-H358 cells (Homo sapiens, NCI-H358, 0.5 h), no more than 100 nM. The “GppNHp-KRAS G12C percent of modification” value in test [3] was “A (percent of modification ≥70%)”.
Consider `C=CC(=O)N1CC[C@@H](Oc2nc(OC[C@]34CCCN3C[C@H](OC)C4)nc3c(F)c(-c4ccc(F)c5sc(N)nc45)c(C(F)(F)F)cc23)C1` (single isomer, unassigned) [Compound 30], for which the “GDP-KRAS G12C percent of modification” value in test [1] is reported as “A (percent of modification ≥70%)”. For the same molecule, the results for the IC50 (in test [2]; in the test with pERK in NCI-H358 cells) were no more than 500 nM and no more than 100 nM, respectively. Besides, the “GppNHp-KRAS G12C percent of modification” value in test [3] was “A (percent of modification ≥70%)”.
In the case of `C=CC(=O)N1CC[C@@H](Oc2nc(OC[C@@]34CCCN3C[C@H](F)C4)nc3c(F)c(-c4ccc(F)c5sc(N)nc45)c(C(F)(F)F)cc23)C1` (single isomer, unassigned) [Compound 12], the “GDP-KRAS G12C percent of modification” value in test [1] is listed as “D (percent of modification <10%)”. Further, the IC50 in test [2] fell in the range of 500 to 5000 nM; in the test on pERK in NCI-H358 cells, 100 to 1000 nM. The “GppNHp-KRAS G12C percent of modification” value in test [3] is reported as “D (percent of modification <10%)”.
For the molecule `C=CC(=O)N1CC(Oc2nc(OC[C@@H]3C[C@@H](OC)CN3C)nc3c(F)c(-c4ccc(F)c5sc(N)nc45)c(C(F)(F)F)cc23)C1` [Compound 26], the “GDP-KRAS G12C percent of modification” value in test [1] was “A (percent of modification ≥70%)”. The IC50 in test [2] was 500 to 5000 nM; in the test on pERK in NCI-H358 cells (Homo sapiens, NCI-H358, 0.5 h), no more than 100 nM. The “GppNHp-KRAS G12C percent of modification” value in test [3] is “C (10%≤modification <50%)”.
For the molecule `C=CC(=O)N1CC[C@@H](Oc2nc(OC[C@@]34CCCN3C[C@H](F)C4)nc3c(F)c(-c4ccc(F)c5sc(N)nc45)c(C(F)(F)F)cc23)[C@@H]1C` (atropisomer, axis not shown) [Compound 42], the “GDP-KRAS G12C percent of modification” value in test [1] was “D (percent of modification <10%)”. The IC50 in test [2] is greater than 20000 nM; with pERK in NCI-H358 cells, greater than 1000 nM. Moreover, in test [3], the “GppNHp-KRAS G12C percent of modification” value was “D (percent of modification <10%)”.
Turning to `C=CC(=O)N1CC[C@H](Oc2nc(OC[C@@]34CCCN3C[C@H](F)C4)nc3c(F)c(-c4ccc(F)c5sc(N)nc45)c(C(F)(F)F)cc23)C1` (atropisomer, axis not shown) [Compound 9], the “GDP-KRAS G12C percent of modification” value in test [1] was “C (10%≤modification <50%)”. The IC50 in test [2] was in the range of 500 to 5000 nM; with pERK in NCI-H358 cells it was 100 to 1000 nM. Moreover, the “GppNHp-KRAS G12C percent of modification” value in test [3] is “D (percent of modification <10%)”.
The like results for `C=CC(=O)N1CC[C@@H](Oc2nc(OC[C@@]34CCCN3C[C@H](F)C4)nc3c(F)c(-c4ccc(F)c5sc(N)nc45)c(C(F)(F)F)cc23)[C@@H]1C` (atropisomer, axis not shown) [Compound 41] were, in that order, “A (percent of modification ≥70%)”, no more than 500 nM, 100 to 1000 nM and “C (10%≤modification <50%)”.
The like results for `C=CC(=O)N1CC[C@@H](Oc2nc(OC[C@@H]3C[C@@H](F)CN3C)nc3c(F)c(-c4ccc(F)c5sc(N)nc45)c(C(F)(F)F)cc23)C1` (atropisomer, axis not shown) [Compound 18] were, in that order, “A (percent of modification ≥70%)”, no more than 500 nM, no more than 100 nM and “C (10%≤modification <50%)”.
The like results for `C=CC(=O)N1C[C@H](Oc2nc(OC[C@@]34CCCN3C[C@H](F)C4)nc3c(F)c(-c4ccc(F)c5sc(N)nc45)c(C(F)(F)F)cc23)C[C@@H]1C` (atropisomer, axis not shown) [Compound 32] were, in that order, “A (percent of modification ≥70%)”, no more than 500 nM, no more than 100 nM and “C (10%≤modification <50%)”.
